Read-outs that look alike come from different tables or passages of the source. Some results are limits rather than exact numbers.

A word on the IC50: it is the concentration at which inhibition is half-maximal. A high value points to weaker potency in that assay. As a reminder, the EC50 is the concentration at which the effect is half-maximal.

Assay [1] deals with human CB2 cannabinoid receptor (Homo sapiens (Human), UniProt P34972). Description: Radioligand binding assay, CB2 ([3H]-CP 55,940 competition). The following applies: for CB2 Selectivity: CB2 versus CB1 binding (ratio of CB1 IC50 to CB2 IC50); for IC50: plasma membranes of HEK 293 EBNA cells transfected with human CB2, 0.72 nM [3H]-CP 55,940, NA = not active. The method, then:
(§1) A. Radioligand Binding Assay
(§2) Plasma membranes prepared from HEK 293 EBNA cells transfected with human CB1 or CB2 cannabinoid receptors ([…] protein, receptor concentration; PerkinElmer) were used for the radioligand binding studies. The composition of incubation buffer for CB1 assay was 50 mM Tris base, 2.5 mM EDTA, 5 mM MgCl2 and 0.5 mg/ml fatty acid free BSA and for CB2 assay was 50 mM Tris base, 2.5 mM EGTA, 5 mM MgCl2 and 1 mg/ml fatty acid free BSA; pH was adjusted to 7.4 by adding 1N HCl. Plasma membranes were diluted with incubation buffer to provide a final protein concentration of 2.4 μg (CB1) or 8 μg (CB2) per well in non-binding surface polystyrene 96-well assay plates (Corning). Compound solutions were prepared in silanized glass tubes and dispensed using pipette tips with SUPERSLIK™ surface. Competition studies were performed using a final concentration of 0.72 nM [^3H]-CP 55,940 (100-180 Ci/mmol, specific activity; PerkinElmer) against test compounds. Non-specific binding was determined using 10 uM of unlabeled CP 55,940. Incubations were performed in 96-well assay plates at a final volume of 200 ul for 90 min (CB1) or 60 min (CB2) at room temperature. Binding reactions were terminated by the addition of ice-cold incubation buffer and rapid filtration through a glass fiber filter using a cell harvester (Inotech). This was followed by 8 additional washes. The glass fiber filter (0.26 mm thickness, 1-1.5 um retention; Inotech) was presoaked in cold incubation buffer containing 0.05% polyethylenimine. The filters were oven-dried at 50° C. for 60 min and counting performed using a Beckman Coulter LS 6500 Multi-Purpose Scintillation Counter (Beckman-Coulter). Binding was determined in duplicate for at least 4 separate experiments.

For assay [2], the system named is mouse isolated vas deferens. Description: Mouse isolated vas deferens (MVD) bioassay, electrically stimulated contractions. The class given is cell-based. The following applies: Mus musculus.
Assay [3] addresses human CB1 cannabinoid receptor (Homo sapiens (Human), UniProt P21554). Description: Radioligand binding assay, CB1 ([3H]-CP 55,940 competition). The following applies: plasma membranes of HEK 293 EBNA cells transfected with human CB1; 0.72 nM [3H]-CP 55,940; NA = not active. The method, then:
as §1, §2

Where [4] appears, read: vas deferens of male Swiss Webster mice, electrically evoked contractions, NA = not active, read-out: MVD Assay EC50.

human CB2 cannabinoid receptor, sequence (P34972 whole entry): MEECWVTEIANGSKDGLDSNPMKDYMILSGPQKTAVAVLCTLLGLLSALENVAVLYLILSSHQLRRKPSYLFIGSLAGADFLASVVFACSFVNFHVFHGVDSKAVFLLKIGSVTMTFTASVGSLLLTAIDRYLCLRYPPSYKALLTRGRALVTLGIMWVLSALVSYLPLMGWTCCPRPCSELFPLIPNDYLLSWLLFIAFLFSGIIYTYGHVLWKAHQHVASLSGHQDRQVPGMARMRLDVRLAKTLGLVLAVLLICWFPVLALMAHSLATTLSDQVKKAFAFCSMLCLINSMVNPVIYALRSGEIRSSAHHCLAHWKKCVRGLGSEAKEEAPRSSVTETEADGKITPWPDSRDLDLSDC
human CB1 cannabinoid receptor, sequence (P21554 whole entry): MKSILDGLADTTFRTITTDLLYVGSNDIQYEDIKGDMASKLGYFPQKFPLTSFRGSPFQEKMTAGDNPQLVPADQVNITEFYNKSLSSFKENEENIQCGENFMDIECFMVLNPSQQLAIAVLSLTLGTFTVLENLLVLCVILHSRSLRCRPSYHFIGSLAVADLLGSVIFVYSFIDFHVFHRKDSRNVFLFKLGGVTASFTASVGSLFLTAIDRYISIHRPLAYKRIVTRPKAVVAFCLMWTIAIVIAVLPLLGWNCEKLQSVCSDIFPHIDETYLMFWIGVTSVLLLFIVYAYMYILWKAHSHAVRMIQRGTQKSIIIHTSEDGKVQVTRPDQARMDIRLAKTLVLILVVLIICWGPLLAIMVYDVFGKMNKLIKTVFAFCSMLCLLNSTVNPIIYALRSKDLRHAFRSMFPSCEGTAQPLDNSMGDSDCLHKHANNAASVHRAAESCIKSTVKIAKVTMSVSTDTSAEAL

On to `CCCNc1cnn(C2CC(C)(C)CC(C)(C)C2)c(=O)c1Cl` [Compound 5, 4-Chloro-5-propylamino--2-(3,3,5,5-tetramethylcyclohexyl)pyridazin-3-one], for which, in assay [1], the “CB2 Selectivity” value is given as 189 and the IC50 was 5.4 nM. In assay [2] (setting [4]), the EC50 came to 30 nM. Moreover, the IC50 in assay [3] was 1.02 µM.

In the case of `CNc1cnn(C2CC(C)(C)CC(C)(C)C2)c(=O)c1` [Compound 6, 5-Methylamino-2-(3,3,5,5-tetramethyl-cyclohexyl)pyridazin-3-one], in assay [1], the “CB2 Selectivity” value was >5 and the IC50 was 2090 nM. The EC50 in assay [2] (setting [4]) is 10000 nM. Further, the IC50 in assay [3] is > 10 µM.

Take `CCCNc1cnn(-c2cc(C)cc(C)c2)c(=O)c1Cl` [Compound 16, 4-Chloro-2-(3,5-dimethylphenyl)-5-propylaminopyridazin-3-one]: the IC50 in assay [1] was 10000 nM; in assay [3], > 10 µM. Also, the EC50 in assay [2] (setting [4]) is > 10000 nM.

Turning to `CCCNc1cnn(-c2cc(C(F)(F)F)cc(C(F)(F)F)c2)c(=O)c1Cl` [Compound 20, 2-(3,5-Bistrifluoromethylphenyl)-4-chloro-5-propylamino-pyridazin-3-one], the IC50 was > 10000 nM in assay [1] and > 10 µM in assay [3]. Also, the EC50 in assay [2] (setting [4]) is > 10000 nM.

Take `CCCNc1cnn(C2CC(C)(C)CC(C)(C)C2)c(=O)c1` [Compound 8, 5-Propylamino-2-(3,3,5,5-tetramethyl-cyclohexyl)pyridazin-3-one]: in assay [1], the “CB2 Selectivity” value was >147 and the IC50 came to 68 nM. Besides, the EC50 in assay [2] (setting [4]) is 440 nM. Moreover, the IC50 in assay [3] is > 10 µM.

As for `CN(C)CCNc1cnn(C2CC(C)(C)CC(C)(C)C2)c(=O)c1Cl` [Compound 12, 4-Chloro-5-(2-dimethylaminoethylamino)-2-(3,3,5,5-tetramethyl-cyclohexyl)pyridazin-3-one], in assay [1], the “CB2 Selectivity” value is reported as >49 and the IC50 came to 204 nM. Further, in assay [2] (setting [4]), the EC50 amounted to 2900 nM. Besides, in assay [3], the IC50 was > 10 µM.

Consider `Cc1cc(C)cc(-n2ncc(NCCN3CCOCC3)c(Cl)c2=O)c1` [Compound 18, 4-Chloro-2-(3,5-dimethylphenyl)-5-(2-morpholin-4-ylethylamino)-pyridazin-3-one], for which the 50% inhibitory concentration (IC50) in assay [1] is > 10000 nM; in assay [3], > 10 µM. Moreover, in assay [2] (setting [4]), the EC50 was ~10000 nM.

In the case of `CC1(C)CC(n2ncc(NCCN3CCOCC3)c(Cl)c2=O)CC(C)(C)C1` [Compound 11, 4-Chloro-5-(2-morpholin-4-ylethyl-amino)-2-(3,3,5,5-tetramethyl-cyclohexyl)pyridazin-3-one], in assay [1], the “CB2 Selectivity” value came out at 48 and the IC50 worked out at 83 nM. Further, the EC50 in assay [2] (setting [4]) was found to be 320 nM. The same compound displayed an IC50 in assay [3] of 3.98 µM.

For `CCCn1cc2c(=O)n(C3CC(C)(C)CC(C)(C)C3)ncc2n1` [Compound 35, 2-Propyl-5-(3,3,5,5-tetramethylcyclohexyl)pyrazolo[3,4-d]pyridazin-4-one], in assay [1], the “CB2 Selectivity” value is listed as >42 and the IC50 was 240 nM. In addition, in assay [2] (read-out: MVD Assay EC50 (nM)), the EC50 stood at 1200 nM. For the same compound, the IC50 in assay [3] is > 10 µM.

In the case of `CCCn1ncc2c(=O)n(C3CC(C)(C)CC(C)(C)C3)ncc21` [Compound 34, 1-Propyl-5-(3,3,5,5-tetramethyl-cyclohexyl)pyrazolo[3,4-d]pyridazin-4-one], in assay [1], the “CB2 Selectivity” value worked out at 15 and the 50% inhibitory concentration (IC50) stood at 17 nM. Further, in assay [2] (read-out: MVD Assay EC50 (nM)), the EC50 was determined as 21 nM. In addition, the IC50 in assay [3] turned out to be 0.257 µM.

Source of the values: patent US9062004B2, “Cannabinoid-2 agonists” (Allergan, Inc., priority 2010, dated 2015).
